Data as given in ChEMBL document CHEMBL1201862, “PubChem BioAssay data set” (2004).
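Method: 48-hour compound exposure of cells in 96-well plates, five concentrations, linear interpolation of endpoints. At the GI50, growth is halved.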 Active and inactive are the calls of the source. Cut-off read from the data, not from the text of the source: active = GI50 up to about 1.1 µM and inactive = higher.

Columns and labels:
Experiment in all cases: DTP human tumour cell line panel, 48 h
ACHN = system: ACHN
NCI-H226 = system: NCI-H226
HL-60 = system: HL-60
COLO 205 = system: COLO 205
U-251 = system: U-251
CCRF-CEM = system: CCRF-CEM
SK-MEL-5 = system: SK-MEL-5
SF-539 = system: SF-539
SK-OV-3 = system: SK-OV-3
SN12C = system: SN12C
786-0 = system: 786-0
HOP-62 = system: HOP-62
TK-10 = system: TK-10
SW-620 = system: SW-620
IGROV-1 = system: IGROV-1
SK-MEL-28 = system: SK-MEL-28
A549 = system: A549
A498 = system: A498
K562 = system: K562

Measured: GI50

CC1(C)CCC[C@@]2(C)C1CCC1(C)C(CCc3ccoc3)/C(=C/OS(=O)(=O)O)CCC12 (stereo not given in full)
inactive: ACHN > 100 µM | NCI-H226 54.8 µM | HL-60 37.1 µM | COLO 205 54.6 µM | U-251 57.5 µM | CCRF-CEM 25.4 µM | SK-MEL-5 > 100 µM | SF-539 > 100 µM | SK-OV-3 71.9 µM | SN12C > 100 µM | 786-0 > 100 µM | HOP-62 > 100 µM | TK-10 > 100 µM | SW-620 54.3 µM | IGROV-1 > 100 µM | SK-MEL-28 58.7 µM | A549 > 100 µM | A498 > 100 µM | K562 31.2 µM

CCCc1c(C(=O)OCC)[nH]c(C(=O)CCC(=O)c2[nH]c(C(=O)OCC)c(CCC)c2C(=O)OCC)c1C(=O)OCC
inactive: ACHN > 100 µM | NCI-H226 > 100 µM | HL-60 > 100 µM | COLO 205 > 100 µM | U-251 > 100 µM | CCRF-CEM > 100 µM | SK-MEL-5 > 100 µM | SF-539 > 100 µM | SK-OV-3 > 100 µM | SN12C > 100 µM | 786-0 54.6 µM | TK-10 > 100 µM | SW-620 > 100 µM | IGROV-1 > 100 µM | SK-MEL-28 > 100 µM | A549 > 100 µM | A498 > 100 µM | K562 > 100 µM

CN(C)c1ccc(-c2nc(N)nc3c2CCCC3)cc1
inactive: ACHN 26.4 µM | NCI-H226 51.3 µM | HL-60 29.3 µM | COLO 205 42.5 µM | U-251 53.7 µM | CCRF-CEM 50.5 µM | SK-MEL-5 34.7 µM | SF-539 > 100 µM | SK-OV-3 > 100 µM | SN12C 37.9 µM | 786-0 82 µM | HOP-62 99.1 µM | TK-10 49.1 µM | SW-620 > 100 µM | IGROV-1 64.4 µM | SK-MEL-28 61.8 µM | A549 52.8 µM | A498 35.6 µM | K562 29.3 µM

CC(=O)OCC1OC(n2cc(F)c(=O)[nH]c2=O)C(NC(=O)N(CCCl)N=O)C(OC(C)=O)C1OC(C)=O (stereo not given)
inactive: ACHN > 100 µM | HL-60 51.5 µM | COLO 205 > 100 µM | U-251 88.9 µM | CCRF-CEM > 100 µM | SK-MEL-5 > 100 µM | SF-539 29.3 µM | SK-OV-3 > 100 µM | SN12C > 100 µM | 786-0 54.2 µM | HOP-62 > 100 µM | TK-10 > 100 µM | SW-620 > 100 µM | IGROV-1 > 100 µM | SK-MEL-28 > 100 µM | A549 89.7 µM | A498 > 100 µM | K562 > 100 µM

CN1C(=O)C2C(=O)N(Cc3ccccc3)CC(=O)N2c2cccnc21 (stereo not given)
inactive: ACHN > 100 µM | NCI-H226 > 100 µM | HL-60 > 100 µM | COLO 205 > 100 µM | U-251 > 100 µM | CCRF-CEM > 100 µM | SK-MEL-5 > 100 µM | SF-539 > 100 µM | SK-OV-3 > 100 µM | 786-0 > 100 µM | HOP-62 > 100 µM | TK-10 > 100 µM | IGROV-1 > 100 µM | A549 > 100 µM | A498 > 100 µM | K562 > 100 µM

CC1CC(c2cccc3c2OCO3)=Nc2ccccc2S1 (stereo not given)
inactive: ACHN > 100 µM | NCI-H226 > 100 µM | HL-60 > 100 µM | COLO 205 > 100 µM | CCRF-CEM > 100 µM | SK-MEL-5 > 100 µM | SF-539 > 100 µM | SK-OV-3 > 100 µM | SN12C > 100 µM | 786-0 > 100 µM | TK-10 > 100 µM | SW-620 > 100 µM | IGROV-1 > 100 µM | SK-MEL-28 > 100 µM | A549 > 100 µM | A498 > 100 µM | K562 > 100 µM

Cc1ccc(S(=O)(=O)SCc2ccccc2CSS(=O)(=O)c2ccc(C)cc2)cc1
inactive: ACHN 29 µM | NCI-H226 > 100 µM | HL-60 12.1 µM | COLO 205 17 µM | U-251 28.6 µM | SK-MEL-5 59.4 µM | SF-539 19.5 µM | SK-OV-3 > 100 µM | SN12C 17.7 µM | 786-0 18.2 µM | HOP-62 > 100 µM | TK-10 > 100 µM | SW-620 17.1 µM | IGROV-1 > 100 µM | SK-MEL-28 19.1 µM | A549 > 100 µM | A498 91.2 µM | K562 15.7 µM

CCN(CC)C(=O)COc1ccc(Br)cc1Br
inactive: ACHN > 100 µM | NCI-H226 > 100 µM | HL-60 83.9 µM | COLO 205 > 100 µM | U-251 > 100 µM | CCRF-CEM > 100 µM | SK-MEL-5 > 100 µM | SF-539 > 100 µM | SK-OV-3 > 100 µM | SN12C > 100 µM | 786-0 > 100 µM | HOP-62 > 100 µM | TK-10 > 100 µM | SW-620 > 100 µM | SK-MEL-28 > 100 µM | A549 > 100 µM | A498 > 100 µM | K562 > 100 µM

CC(=O)c1cccc(N2COC(C)(C)c3nc4ccccc4n3C2)c1
inactive: ACHN > 100 µM | NCI-H226 > 100 µM | HL-60 > 100 µM | COLO 205 > 100 µM | U-251 > 100 µM | CCRF-CEM > 100 µM | SF-539 > 100 µM | SK-OV-3 > 100 µM | SN12C > 100 µM | 786-0 > 100 µM | HOP-62 > 100 µM | TK-10 > 100 µM | SW-620 > 100 µM | IGROV-1 > 100 µM | SK-MEL-28 > 100 µM | A549 > 100 µM | A498 > 100 µM | K562 > 100 µM

CC1(C)COC(c2cccc3c2C(=O)c2cccc(Cl)c2-3)=N1
inactive: ACHN 51.1 µM | HL-60 28.4 µM | COLO 205 42.9 µM | U-251 68.4 µM | CCRF-CEM 43 µM | SK-MEL-5 25.3 µM | SF-539 68.7 µM | SK-OV-3 48.8 µM | SN12C 74 µM | 786-0 39.4 µM | TK-10 41.7 µM | SW-620 37.8 µM | IGROV-1 > 100 µM | SK-MEL-28 58.7 µM | A549 58.1 µM | A498 32.1 µM | K562 33.7 µM

Cc1cc(NCCCCCCNc2cc(C)nc3ccc(Cl)cc23)c2cc(Cl)ccc2n1
inactive: ACHN 33 µM | NCI-H226 > 100 µM | HL-60 7.4 µM | COLO 205 18.3 µM | U-251 16.9 µM | CCRF-CEM 3.63 µM | SK-MEL-5 18.3 µM | SF-539 15.9 µM | SK-OV-3 > 100 µM | SN12C 22 µM | 786-0 17.4 µM | HOP-62 75.5 µM | TK-10 27 µM | SK-MEL-28 17.2 µM | A549 20.8 µM | A498 > 100 µM | K562 2.49 µM
